Experimental data published in ChEMBL document CHEMBL1201862, “PubChem BioAssay data set” (2004).
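96-well plates; 48 h exposure; 5 concentrations. Endpoints by linear interpolation between flanking doses. Not reached: highest tested concentration assigned. GI50 is the concentration that inhibits growth by half.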 The source made the active and inactive calls. Rule as the data show it: active = GI50 up to about 1.1 µM and inactive = higher.

Legend:
Test in all cases: NCI tumour cell line growth inhibition, 48 h
MCF7 = system: MCF7
OVCAR-4 = system: OVCAR-4
SN12C = system: SN12C
OVCAR-8 = system: OVCAR-8
U-251 = system: U-251
LOX IMVI = system: LOX IMVI
PC-3 = system: PC-3
ACHN = system: ACHN
RPMI-8226 = system: RPMI-8226
SW-620 = system: SW-620
CAKI-1 = system: CAKI-1
HCC 2998 = system: HCC 2998
DU-145 = system: DU-145
M14 = system: M14
NCI-H460 = system: NCI-H460
HL-60 = system: HL-60
HCT-15 = system: HCT-15
COLO 205 = system: COLO 205
K562 = system: K562
SNB-19 = system: SNB-19

SMILES | GI50 (MCF7) | GI50 (OVCAR-4) | GI50 (SN12C) | GI50 (OVCAR-8) | GI50 (U-251) | GI50 (LOX IMVI) | GI50 (PC-3) | GI50 (ACHN) | GI50 (RPMI-8226) | GI50 (SW-620) | GI50 (CAKI-1) | GI50 (HCC 2998) | GI50 (DU-145) | GI50 (M14) | GI50 (NCI-H460) | GI50 (HL-60) | GI50 (HCT-15) [µM] | GI50 (COLO 205) | GI50 (K562) | GI50 (SNB-19)
CC(CC(C)[C@H]1CCC2[C@H]3C(CC[C@@]21C)[C@@]1(C)CCC(O)C[C@H]1C[C@@H]3O)C(=O)O (stereo not given in full) | > 100 µM (inactive) | > 100 µM (inactive) | > 100 µM (inactive) | > 100 µM (inactive) | > 100 µM (inactive) | > 100 µM (inactive) | > 100 µM (inactive) | > 100 µM (inactive) | > 100 µM (inactive) | > 100 µM (inactive) | > 100 µM (inactive) | > 100 µM (inactive) | > 100 µM (inactive) | > 100 µM (inactive) | > 100 µM (inactive) | > 100 µM (inactive) | > 100 | > 100 µM (inactive) | 26.2 µM (inactive) | > 100 µM (inactive)
O=C(OCCN=C1c2ccccc2CCc2ccccc21)c1ccccc1 | > 100 µM (inactive) | > 100 µM (inactive) | > 100 µM (inactive) | > 100 µM (inactive) | > 100 µM (inactive) | > 100 µM (inactive) | > 100 µM (inactive) | > 100 µM (inactive) | 13 µM (inactive) | > 100 µM (inactive) | > 100 µM (inactive) | > 100 µM (inactive) | > 100 µM (inactive) | > 100 µM (inactive) | > 100 µM (inactive) | > 100 µM (inactive) | > 100 | > 100 µM (inactive) | > 100 µM (inactive) | > 100 µM (inactive)
COc1ccc(C(=O)N=C2N(c3ccccc3)C(=N/c3ccccc3)/C(=N\c3ccccc3)N2c2ccccc2)cc1 | > 100 µM (inactive) | 21.9 µM (inactive) | > 67.1 µM (inactive) | 20 µM (inactive) | 19.1 µM (inactive) | 49 µM (inactive) | 16.8 µM (inactive) | 22.5 µM (inactive) | > 74.6 µM (inactive) | 99.8 µM (inactive) | 39.9 µM (inactive) | > 85.7 µM (inactive) | > 100 µM (inactive) | 8.22 µM (inactive) | 47.1 µM (inactive) | > 100 µM (inactive) | > 100 | > 100 µM (inactive) | > 100 µM (inactive) | 19.2 µM (inactive)
O=C(O)CCS/C(=C\C(SCCC(=O)O)c1ccc(Cl)cc1)c1ccc(Cl)cc1 (stereo not given) | 21.3 µM (inactive) | 41.2 µM (inactive) | 50 µM (inactive) | 53.5 µM (inactive) | 33.5 µM (inactive) | 25.5 µM (inactive) | 61 µM (inactive) | 46.3 µM (inactive) | 31 µM (inactive) | 28.1 µM (inactive) | 37.2 µM (inactive) | 24.2 µM (inactive) | 57.9 µM (inactive) | 47.9 µM (inactive) | 50.1 µM (inactive) | 36.7 µM (inactive) | 30.8 | 21.4 µM (inactive) | 35.1 µM (inactive) | 40.7 µM (inactive)
CN(C)/C=C/c1nnnn1-c1ccc(I)cc1 | 12 µM (inactive) | 20.5 µM (inactive) | 14.9 µM (inactive) | 19.5 µM (inactive) | 11.9 µM (inactive) | 16.6 µM (inactive) | 16.6 µM (inactive) | 22 µM (inactive) | 12.8 µM (inactive) | 15.3 µM (inactive) | 22.3 µM (inactive) | 39.6 µM (inactive) | 28.2 µM (inactive) | 14.3 µM (inactive) | 31.1 µM (inactive) | 6.21 µM (inactive) | 13.5 | > 100 µM (inactive) | 19 µM (inactive) | 20.3 µM (inactive)
N=C1NC(c2ccc(Cl)cc2)=CC(c2cccc(Cl)c2)S1 (stereo not given) | 24.8 µM (inactive) | 20.3 µM (inactive) | 27.7 µM (inactive) | 38.6 µM (inactive) | 22.4 µM (inactive) | 33.7 µM (inactive) | 28.2 µM (inactive) | 24.4 µM (inactive) | 17.3 µM (inactive) | 34.5 µM (inactive) | 24.1 µM (inactive) | 27.7 µM (inactive) | 66.1 µM (inactive) | 48.4 µM (inactive) | 26.4 µM (inactive) | 38 µM (inactive) | 13.1 | 16.4 µM (inactive) | 34.3 µM (inactive) | 16.8 µM (inactive)
